Laboratory results reported in US12186283B2, “Bismuth-thiol compositions and methods of use” (Microbion Corporation, priority 2018, dated 2025).
In brackets after ≈: the same amount, converted by molar mass. Marks after values point to notes of the source that are not given here.

How the values were obtained:
M. avium = experiment: MIC against CF isolates (Example 5); format: cell-based; settings: Mycobacterium avium, strain MAC101, M. avium, MAC reference strain, blood isolate from HIV patient
[1] = test system: Burkholderia spp. (B. cepacia complex); experiment: MIC against CF isolates (Example 5); format: cell-based; settings: Table 4A; strain AU197, B. cenocepacia (B cepacia complex)
Acinetobacter baumannii [2] = experiment: Broth microdilution MIC (Example 11); format: cell-based; settings: A. baumannii MMX 3373; Sensitive
[3] = test system: Staphylococcus aureus (MRSA); experiment: Broth microdilution MIC (Example 11); format: cell-based; settings: MRSA, LevR, CipR, EryR, OxR
[4] = test system: S. pneumoniae (pneumococci); experiment: Broth microdilution MIC (Example 11); format: cell-based, Streptococcus pneumoniae; settings: pneumococci incl. multi-drug resistant
[5] = test system: anaerobes (Bacteroides fragilis and Clostridium difficile); experiment: Agar dilution MIC (Example 11), group statement; format: cell-based; settings: B. fragilis and C. difficile QC isolates, C. difficile ribotypes incl. 027
Method: The test agents were stored at room temperature until assayed. All test agents were suspended and diluted in 100% dimethylsulfoxide (DMSO), and were ultimately tested at a final concentration of 0.06-64 μg/mL.
The susceptibility of anaerobic bacteria was determined by agar dilution using Brucella Agar (BD/BBL; Lot No. 5237692) supplemented with 5 μg/mL hemin (Sigma, St. Louis, MO; Lot No. 108K1088), 1 μg/mL Vitamin K1 and 5% (v/v) laked sheep blood (Cleveland Scientific, Bath, OH; Lot No. 322799).
MIC values for anaerobic bacteria were determined using a reference agar dilution method as described by CLSI (6). Organisms were grown at 35° C. in the Bactron II Anaerobic Chamber (Shel Lab, Cornelius, OR) for approximately 48 hr prior to the assay. Drug dilutions and drug-supplemented agar plates were prepared manually per CLSI (6). The plates were allowed to stand at room temperature for 1 hr to allow the agar surface to dry and pre-reduced for approximately 1 hr in the anaerobe chamber prior to inoculation. Each isolate was suspended to the equivalent of a 0.5 McFarland standard in Brucella broth using a turbidity meter (Dade Behring MicroScan, West Sacramento, CA). Each bacterial cell suspension was then diluted 1:10 in Brucella broth and transferred to wells in a stainless steel replicator block which was used to inoculate the test plates. […] The MIC was read per CLSI guidelines (6).

E. coli ATCC 25922 [6] = experiment: Broth microdilution MIC, QC organism (Example 13, Table 110); format: cell-based, Escherichia coli
Excerpt: MECs were only reported where observed.

[7] = test system: Achromobacter spp. biofilm; experiment: Activity against biofilms; settings: tested up to 250 μg/mL
E. coli ATCC 25922 [8] = settings: CLSI established QC range; cited from earlier work
S. aureus ATCC 29213 = settings: CLSI established QC range; cited from earlier work
[9] = Rat single-dose PK: lung tissue BisEDT; settings: for concentration at 24 h / concentration at 96 h: F344, rat, inhaled, 100 μg/kg
[10] = Rat single-dose PK: whole blood BisEDT (bismuth by ICP-MS)
P. aeruginosa [11] = experiment: Checkerboard FIC assay, BisEDT with CF agents (Example 10); format: cell-based, Pseudomonas aeruginosa; settings: agent alone, as observed during FIC testing
P. aeruginosa [12] = experiment: Broth microdilution MIC (Example 10)
Escherichia coli = experiment: Broth microdilution MIC (Example 12)
Acinetobacter baumannii [13] = experiment: Broth microdilution MIC (Example 12)

CC(S)C(C)S.[Bi] (centres unmarked) [BisBDT, bismuth-2,3-butanedithiol]
MIC (M. avium): 1 µg/mL | MIC [1]: 4 µg/mL | MIC (Acinetobacter baumannii [2]): 0.5 µg/mL | MIC ([3]; S. aureus MMX 5373, CCR): ≤0.06 µg/mL | MIC ([3]; S. aureus MMX 6311, CCR): ≤0.06 µg/mL | MIC ([3]; S. aureus MMX 9204): ≤0.06 µg/mL | MIC ([3]; S. aureus MMX 9205, CCR): ≤0.06 µg/mL | MIC values (range across isolates) [4]: 0.5 to 8 µg/mL | MIC values (range across isolates) [5]: 1 to 4 µg/mL | MIC 24 hr (E. coli ATCC 25922 [6]): 0.5^a | reduction in viable biofilm cells [7]: 5 log

C1C[S][Bi]([S]CC[S][Bi]2[S]CC[S]2)[S]1 [BisEDT, bismuth-1,2-ethanedithiol]
QC Range 24 hr (E. coli ATCC 25922 [8]): 0.5-4 | QC Range 24 hr (S. aureus ATCC 29213): 0.12-1 | concentration at 24 h ([9]; lung fluid): 123 µg/mL | concentration at 96 h ([9]; lung fluid): 78 µg/mL | concentration at 24 h ([9]; lung tissue): 4090 ng/g | concentration at 96 h ([9]; lung tissue): 2600 ng/g | half-life of lung levels ([9]; rat, IV dosing): about 24 hour | lung levels relative to inhalation group ([9]; rat, IV dosing 100 μg/kg): < 5% | lung levels ([9]; rat, oral dosing 250 μg/kg): no lung levels | lung tissue half-life ([9]; rat, single inhalation dose (100 μg/kg lung deposited)): about 4 days | Mean BisEDT Conc, lung at sacrifice ([9]; rat, single inhaled dose 47 μg/kg, sac time 30 hr): 4.8 ng/g | Mean BisEDT Conc, lung at sacrifice ([9]; rat, single inhaled dose 124 μg/kg, sac time 30 hr): 5.9 ng/g | Mean BisEDT Conc, lung at sacrifice ([9]; rat, single inhaled dose 400 μg/kg, sac time 30 hr): 12.1 ng/g | Mean BisEDT Conc, lung at sacrifice ([9]; rat, single inhaled dose 3000 μg/kg, sac time 24 hr): 82.3 ng/g | duration of initial distribution into tissues ([10]; IV dosing, biphasic pattern): 18 h | systemic levels lower than in the lung ([10]; inhalation dosing): about 10 × | blood exposure ([10]; inhalation dosing 100 μg/kg): sustained, moderate, blood exposure with relatively stable concentrations across time | blood concentrations ([10]; oral dosing 250 μg/kg): very low, but sustained and measurable

C[C@@H](O)[C@H]1C(=O)N2C(C(=O)O)=C(S[C@@H]3CN[C@H](C(=O)N(C)C)C3)[C@H](C)[C@H]12 [MEM]
MIC (P. aeruginosa [11]; P. aeruginosa isolate 6322): 16 µg/mL | MIC (P. aeruginosa [11]; P. aeruginosa isolate 6977): 8 µg/mL | MIC (P. aeruginosa [11]; P. aeruginosa isolate 7745): 16 µg/mL | MIC (P. aeruginosa [11]; P. aeruginosa isolate 8798): 32 µg/mL | MIC (P. aeruginosa [11]; P. aeruginosa isolate 9108): 1 µg/mL | MIC (P. aeruginosa [12]; P. aeruginosa isolate 103 (ATCC 25922), QC strain, initial MIC testing): 1 µg/mL (≈ 2.61 µM) | MIC (P. aeruginosa [12]; P. aeruginosa isolate 103 (ATCC 25922), during FIC testing, each agent tested alone for QC, one replicate): 1 µg/mL | MIC (P. aeruginosa [12]; P. aeruginosa isolate 1497 (TOB-R, AMK-R, CIP-I, AZT-R, COL-R), initial MIC testing): 0.06 µg/mL (≈ 0.156 µM) | MIC (P. aeruginosa [12]; P. aeruginosa isolate 1530 (TOB-R, AMK-R, CIP-R), initial MIC testing): 0.5 µg/mL (≈ 1.3 µM) | MIC (P. aeruginosa [12]; P. aeruginosa isolate 1553 (TOB-R, AMK-R, CIP-R), initial MIC testing): 0.5 µg/mL (≈ 1.3 µM) | MIC (P. aeruginosa [12]; P. aeruginosa isolate 6322 (MEM-R, TOB-R, AMK-R, CIP-R, AZT-R), initial MIC testing): 16 µg/mL (≈ 41.7 µM) | MIC (P. aeruginosa [12]; P. aeruginosa isolate 6977 (MEM-I, TOB-R, CIP-R, AZT-I), initial MIC testing): 4 µg/mL (≈ 10.4 µM) | MIC (P. aeruginosa [12]; P. aeruginosa isolate 7745 (MEM-R, CIP-R, AZT-R), initial MIC testing): 16 µg/mL (≈ 41.7 µM) | MIC (P. aeruginosa [12]; P. aeruginosa isolate 7754 (MEM-R, TOB-R, CIP-R, AZT-I), initial MIC testing): 32 µg/mL (≈ 83.4 µM) | MIC (P. aeruginosa [12]; P. aeruginosa isolate 7762 (MEM-I, CIP-I), initial MIC testing): 4 µg/mL (≈ 10.4 µM) | MIC (P. aeruginosa [12]; P. aeruginosa isolate 7871 (MEM-R, AZT-I), initial MIC testing): 8 µg/mL (≈ 20.9 µM) | MIC (P. aeruginosa [12]; P. aeruginosa isolate 7874, initial MIC testing): 1 µg/mL (≈ 2.61 µM) | MIC (P. aeruginosa [12]; P. aeruginosa isolate 7886 (MEM-R, CIP-R, AZT-R), initial MIC testing): 32 µg/mL (≈ 83.4 µM) | MIC (P. aeruginosa [12]; P. aeruginosa isolate 8797 (MEM-R, TOB-R, AMK-R, CIP-R, AZT-R, COL-R), initial MIC testing): 32 µg/mL (≈ 83.4 µM) | MIC (P. aeruginosa [12]; P. aeruginosa isolate 8798 (MEM-R, TOB-R, AMK-R, CIP-R, AZT-R, COL-R), initial MIC testing): 64 µg/mL (≈ 167 µM) | MIC (P. aeruginosa [12]; P. aeruginosa isolate 9108 (CIP-R, AZT-I), initial MIC testing): 0.5 µg/mL (≈ 1.3 µM) | MIC (Escherichia coli; E. coli ATCC 25922, QC organism): ≤0.008 µg/mL | MIC (Escherichia coli; E. coli ATCC 35218, QC organism): ≤0.008 µg/mL | MIC (Escherichia coli; Escherichia coli ATCC 35218, ESBL): ≤0.008 µg/mL | MIC (Escherichia coli; Escherichia coli ATCC BAA-2471, NDM): >8 µg/mL | MIC (Escherichia coli; Escherichia coli CDC 114, ESBL/KPC): 2 µg/mL (≈ 5.22 µM) | MIC (Escherichia coli; Escherichia coli CDC 118, ESBL/NDM): 0.06 µg/mL (≈ 0.156 µM) | MIC (Escherichia coli; Escherichia coli CDC 435, NDM): >8 µg/mL | MIC (Escherichia coli; Escherichia coli CDC 451, KPC): 1 µg/mL (≈ 2.61 µM) | MIC (Escherichia coli; Escherichia coli CDC 503, ESBL/NDM): 8 µg/mL (≈ 20.9 µM) | MIC (Escherichia coli; Escherichia coli MMX 5745, KPC): 2 µg/mL (≈ 5.22 µM) | MIC (Escherichia coli; Escherichia coli MMX 5755, ESBL): 0.015 µg/mL (≈ 0.0391 µM) | MIC (Escherichia coli; Escherichia coli MMX 5756, ESBL): ≤0.008 µg/mL | MIC (Escherichia coli; Escherichia coli MMX 5758, ESBL): ≤0.008 µg/mL | MIC (Acinetobacter baumannii [13]; Acinetobacter baumannii CDC 273, ESBL/OXA): >8 µg/mL | MIC (Acinetobacter baumannii [13]; Acinetobacter baumannii CDC 274, ESBL/OXA): >8 µg/mL | MIC (Acinetobacter baumannii [13]; Acinetobacter baumannii CDC 275, ESBL/OXA): >8 µg/mL | MIC (Acinetobacter baumannii [13]; Acinetobacter baumannii CDC 277, ESBL/OXA): >8 µg/mL | MIC (Acinetobacter baumannii [13]; Acinetobacter baumannii CDC 284, ESBL/OXA): >8 µg/mL | MIC (Acinetobacter baumannii [13]; Acinetobacter baumannii CDC 307, OXA): 8 µg/mL (≈ 20.9 µM) | MIC (Acinetobacter baumannii [13]; Acinetobacter baumannii CDC 308, ESBL/OXA): 8 µg/mL (≈ 20.9 µM) | MIC (Acinetobacter baumannii [13]; Acinetobacter baumannii CDC 311, OXA): >8 µg/mL | MIC (Acinetobacter baumannii [13]; Acinetobacter baumannii CDC 312, OXA): 4 µg/mL (≈ 10.4 µM) | MIC (Acinetobacter baumannii [13]; Acinetobacter baumannii CDC 313, ESBL/OXA): >8 µg/mL | MIC (Acinetobacter baumannii [13]; Acinetobacter baumannii NCTC 13304, OXA): >8 µg/mL
